The values that follow come from ChEMBL document CHEMBL1122633, “Interactions of antitumor drugs with natural DNA: 1H NMR study of binding mode and kinetics” (J Med Chem, 1984).

This test concerns Nucleic Acid. Description: DNA binding dissociation constant as KD. It counts as nucleic-acid assay.

`Nc1c2ccccc2nc2ccccc12` gave a Log Kd of 5.7. `c1ccc2c(c1)[nH]c1cnccc12` showed a Log Kd of 5.34. `Cc1cc2nc3ccccc3n(-c3cccc(N(C)C)c3)c-2c(C)c1=N` came in with a Log Kd of 3.64. For `Cn1cc(NC(=O)c2cc(NC(=O)c3cc(NC=O)cn3C)cn2C)cc1C(=O)NCCC(=N)N` the value was 6.06; for `CS(=O)(=O)Nc1cccc(Nc2c3ccccc3nc3ccccc23)c1`, 5.8; for `Cc1c2ccncc2c(C)c2c1[nH]c1ccc(O)cc12`, 0.3. For `Cc1c2ccncc2c(C)c2c1[nH]c1ccccc12` the value was 5.18.

Turning to `CCN(CC)CCCC(C)Nc1ccnc2cc(Cl)ccc12` (stereo unspecified), the Log Kd was determined as 4.25. `C[n+]1ccc(Nc2ccc(NC(=O)c3ccc(Nc4cc[n+](C)c5ccc(N)cc45)cc3)cc2)cc1` had a Log Kd of 6.9. Compound `CN(C)CCN1C(=O)c2cccc3cc([N+](=O)[O-])cc(c23)C1=O` showed a Log Kd of 5.16. Regarding `Cc1c2cc[n+](C)cc2c(C)c2c1[nH]c1ccc(O)cc12`, the Log Kd is 6.11. `CC[n+]1c(-c2ccccc2)c2cc(N)ccc2c2ccc(N)cc21`: the Log Kd amounted to 5.7. In the case of `C[n+]1c(-c2ccccc2)c2cc(N)ccc2c2ccc(N)cc21`, the Log Kd is 5.7. The value for `CC[n+]1c(-c2ccccc2)c2cc(N)ccc2c2ccccc21` was 4.9; that for `COc1cc(NS(C)(=O)=O)ccc1Nc1c2ccccc2nc2ccccc12` was 5.14. In turn, `COc1cccc2c1C(=O)c1c(O)c3c(c(O)c1C2=O)C[C@@](O)(C(C)=O)C[C@@H]3O[C@H]1C[C@H](N)[C@H](O)[C@H](C)O1` displayed a Log Kd of 6.49. As to `CS(=O)(=O)Nc1ccc(Nc2c3ccccc3nc3ccccc23)cc1`, the Log Kd was 5.63.

As for `c1ccc2c(c1)ccc1[n+]2Cc2ccc3ccccc3[n+]2-1`, the Log Kd is 4.7. With `CS(=O)(=O)Nc1ccccc1Nc1c2ccccc2nc2ccccc12`, the Log Kd is 5.72. `CCN(CC)CCCC(C)Nc1c2ccc(Cl)cc2nc2ccc(OC)cc12` (stereo unspecified) came in with a Log Kd of 4.25. The compound `CCN(CC)CCOc1ccc2c(c1)C(=O)c1cc(OCCN(CC)CC)ccc1-2` returned a Log Kd of 5.64.
